Assay results published in ChEMBL document CHEMBL6103572, “Design, synthesis and structure-activity relationship of novel 1,2,4-triazolopyrimidin-5-one derivatives targeting GABAA1 and Nav1.2 with antiepileptic activity” (Eur J Med Chem, 2025).

Legend:
[1] = test system: Mus musculus; test: Anticonvulsant activity in ip dosed sc-PTZ induced Kunming mouse model assessed as effective dose measured after 0.5 hrs […]; assay type: functional
[2] = biological target: GABA-A receptor; anion channel (Rattus norvegicus) (UniProt O09028+P15431+P18506+P18508+P19969+P20236+P23574+P23576+P28471+P28473+P30191+P62813+P63079+P63138+Q91ZM7+Q9ES14); test: Potentiation of GABAA receptor in Sprague-Dawley rat hippocampal neurons assessed as increase in current amplitude by whole-cell voltage-clamp assay; assay type: cell-based; details: Hippocampal neuron, filed as activator, dose 0.1-10 µM
[3] = Neurotoxicity in ip dosed sc-PTZ induced Kunming mouse measured after 0.5 hrs by rotarod test; assay type: toxicity, organism-based; details: in vivo
[4] = Drug concentration in male Sprague-Dawley rat brain at 30 mg/kg, IG administered once measured after 0.25 to 8 hrs by HPLC analysis; assay type: ADME, organism-based; details: in vivo, po, time 0.25-8 hrs
[5] = test system: Mus musculus; test: Antiepileptic activity in PTZ induced Kunming mouse model assessed as protection of seizure at 30 mg/kg, ip incubated for 30 min prior to PTZ stimulation relative to control; assay type: functional; details: 0.5 h
[6] = biological target: T1, GABA-A receptor; alpha-1/beta-2/gamma-2 (Homo sapiens, UniProt P14867+P18507+P47870); test: Potentiation of recombinant human alpha1/beta2/gamma2 GABA receptor expressed in T-REX-CHO cells assessed as increase in current amplitude by whole-cell patch clamp assay; assay type: cell-based
T1 sequence (P14867 whole entry): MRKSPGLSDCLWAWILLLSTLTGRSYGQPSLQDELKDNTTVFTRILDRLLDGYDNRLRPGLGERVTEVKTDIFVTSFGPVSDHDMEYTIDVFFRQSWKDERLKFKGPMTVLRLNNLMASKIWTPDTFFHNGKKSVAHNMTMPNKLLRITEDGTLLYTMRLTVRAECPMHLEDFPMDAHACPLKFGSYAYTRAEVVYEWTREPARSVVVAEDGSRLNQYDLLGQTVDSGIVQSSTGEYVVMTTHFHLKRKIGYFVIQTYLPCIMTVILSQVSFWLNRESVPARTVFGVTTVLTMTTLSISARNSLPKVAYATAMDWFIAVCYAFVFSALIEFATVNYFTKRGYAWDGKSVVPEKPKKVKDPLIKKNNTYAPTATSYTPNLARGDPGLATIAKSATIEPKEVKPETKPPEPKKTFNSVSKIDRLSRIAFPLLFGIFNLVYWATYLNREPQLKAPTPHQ
T1 sequence (P47870 whole entry): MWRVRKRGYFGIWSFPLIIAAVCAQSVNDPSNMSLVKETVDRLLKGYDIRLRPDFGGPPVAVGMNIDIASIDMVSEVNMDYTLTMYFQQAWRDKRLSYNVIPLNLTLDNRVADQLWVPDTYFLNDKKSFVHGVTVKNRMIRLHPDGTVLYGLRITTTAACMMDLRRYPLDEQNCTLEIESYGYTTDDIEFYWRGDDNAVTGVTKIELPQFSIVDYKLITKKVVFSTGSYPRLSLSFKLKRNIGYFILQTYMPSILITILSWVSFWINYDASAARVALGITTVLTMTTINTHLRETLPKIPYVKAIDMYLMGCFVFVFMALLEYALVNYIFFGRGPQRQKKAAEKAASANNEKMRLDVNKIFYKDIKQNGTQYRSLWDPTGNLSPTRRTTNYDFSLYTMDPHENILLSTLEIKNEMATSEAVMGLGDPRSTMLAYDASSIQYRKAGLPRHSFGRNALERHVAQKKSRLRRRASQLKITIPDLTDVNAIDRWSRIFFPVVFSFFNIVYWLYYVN
T1 sequence (P18507 whole entry): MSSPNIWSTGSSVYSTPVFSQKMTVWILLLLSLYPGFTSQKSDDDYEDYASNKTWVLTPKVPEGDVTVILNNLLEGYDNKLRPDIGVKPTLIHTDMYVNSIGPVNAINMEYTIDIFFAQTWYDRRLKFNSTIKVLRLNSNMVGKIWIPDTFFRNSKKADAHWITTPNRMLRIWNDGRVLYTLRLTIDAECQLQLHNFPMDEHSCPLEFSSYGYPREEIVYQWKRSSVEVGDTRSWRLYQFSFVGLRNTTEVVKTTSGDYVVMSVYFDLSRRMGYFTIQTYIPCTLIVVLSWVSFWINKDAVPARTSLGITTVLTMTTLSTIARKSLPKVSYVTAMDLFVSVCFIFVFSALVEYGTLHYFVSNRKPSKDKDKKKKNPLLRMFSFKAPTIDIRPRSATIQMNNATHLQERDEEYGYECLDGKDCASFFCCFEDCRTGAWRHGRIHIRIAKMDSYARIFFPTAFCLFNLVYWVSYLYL

[7] = Protection index, ratio of TD50 for neurotoxicity in ip dosed scPTZ induced Kunming mouse to ED50 for anticonvulsant activity in ip dosed scPTZ induced Kunming mouse; assay type: toxicity, organism-based; details: in vivo, read-out: Ratio TD50/ED50
[8] = biological target: Sodium channel protein type 2 subunit alpha (Homo sapiens, UniProt Q99250); test: Inhibition of Nav 1.2 (unknown origin) expressed in HEK293 cells at -20 mV to -120 mV holding potential under inactivation state by whole-cell patch clamp analysis; assay type: cell-based
Sequence of Sodium channel protein type 2 subunit alpha (Q99250 whole entry): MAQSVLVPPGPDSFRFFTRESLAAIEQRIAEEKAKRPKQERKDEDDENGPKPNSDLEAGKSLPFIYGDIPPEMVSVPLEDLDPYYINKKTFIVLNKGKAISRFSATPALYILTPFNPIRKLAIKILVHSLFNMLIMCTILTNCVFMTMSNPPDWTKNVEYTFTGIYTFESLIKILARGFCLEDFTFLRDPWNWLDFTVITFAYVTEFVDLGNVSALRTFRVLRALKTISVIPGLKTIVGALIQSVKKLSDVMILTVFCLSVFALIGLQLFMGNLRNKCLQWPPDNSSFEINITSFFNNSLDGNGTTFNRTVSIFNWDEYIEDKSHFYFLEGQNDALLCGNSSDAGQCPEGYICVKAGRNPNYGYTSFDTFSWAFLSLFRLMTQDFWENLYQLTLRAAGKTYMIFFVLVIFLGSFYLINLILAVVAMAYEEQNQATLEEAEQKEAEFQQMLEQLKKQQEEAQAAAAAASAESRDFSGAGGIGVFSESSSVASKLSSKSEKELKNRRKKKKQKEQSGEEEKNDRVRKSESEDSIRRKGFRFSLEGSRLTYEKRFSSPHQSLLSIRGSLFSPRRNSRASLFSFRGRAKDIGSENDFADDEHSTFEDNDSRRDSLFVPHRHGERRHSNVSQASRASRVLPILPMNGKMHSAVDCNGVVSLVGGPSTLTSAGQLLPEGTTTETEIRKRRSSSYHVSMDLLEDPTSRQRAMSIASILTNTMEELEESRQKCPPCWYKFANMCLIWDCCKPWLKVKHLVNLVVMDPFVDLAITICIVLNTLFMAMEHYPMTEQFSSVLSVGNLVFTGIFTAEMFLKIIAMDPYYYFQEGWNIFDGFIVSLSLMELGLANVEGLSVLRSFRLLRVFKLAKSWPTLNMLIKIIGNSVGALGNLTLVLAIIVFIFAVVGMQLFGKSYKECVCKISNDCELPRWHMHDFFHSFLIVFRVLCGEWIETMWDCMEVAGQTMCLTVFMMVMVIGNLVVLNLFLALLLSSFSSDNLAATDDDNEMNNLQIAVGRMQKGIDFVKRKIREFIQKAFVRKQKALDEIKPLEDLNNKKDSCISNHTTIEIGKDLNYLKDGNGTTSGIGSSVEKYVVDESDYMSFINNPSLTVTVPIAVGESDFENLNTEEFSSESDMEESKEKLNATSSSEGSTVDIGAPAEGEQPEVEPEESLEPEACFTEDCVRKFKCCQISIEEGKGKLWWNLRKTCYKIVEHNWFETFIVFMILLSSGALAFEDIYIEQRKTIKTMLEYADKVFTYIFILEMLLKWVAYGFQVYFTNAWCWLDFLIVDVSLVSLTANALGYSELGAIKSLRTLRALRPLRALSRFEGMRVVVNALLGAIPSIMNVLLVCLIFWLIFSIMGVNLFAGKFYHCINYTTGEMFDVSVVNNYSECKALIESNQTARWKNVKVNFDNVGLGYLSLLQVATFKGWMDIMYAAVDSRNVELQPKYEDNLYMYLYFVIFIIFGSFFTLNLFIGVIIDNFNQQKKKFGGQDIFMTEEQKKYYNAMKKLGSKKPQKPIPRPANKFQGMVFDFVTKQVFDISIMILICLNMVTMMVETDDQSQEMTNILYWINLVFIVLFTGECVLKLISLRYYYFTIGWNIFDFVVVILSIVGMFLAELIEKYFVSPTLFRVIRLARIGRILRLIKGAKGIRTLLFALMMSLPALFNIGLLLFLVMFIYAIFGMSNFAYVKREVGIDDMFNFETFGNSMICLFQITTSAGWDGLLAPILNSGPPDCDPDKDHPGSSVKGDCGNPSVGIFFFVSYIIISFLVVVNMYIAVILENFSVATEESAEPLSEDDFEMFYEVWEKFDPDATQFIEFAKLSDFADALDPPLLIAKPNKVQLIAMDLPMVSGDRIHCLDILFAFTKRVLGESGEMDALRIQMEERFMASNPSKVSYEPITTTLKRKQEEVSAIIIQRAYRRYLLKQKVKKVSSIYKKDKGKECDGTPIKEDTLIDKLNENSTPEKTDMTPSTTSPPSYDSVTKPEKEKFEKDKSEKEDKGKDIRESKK

[9] = Drug concentration in male Sprague-Dawley rat plasma at 30 mg/kg, IG administered once measured after 0.25 to 8 hrs by HPLC analysis; assay type: ADME, organism-based; details: in vivo, po, time 0.25-8 hrs
[10] = biological target: GABA-A receptor; alpha-1/beta-2/gamma-2 (Homo sapiens) (UniProt P14867+P47870+P18507); test: Potentiation of recombinant human alpha1/beta2/gamma2 GABA receptor expressed in T-REX-CHO cells assessed as fold increase in current amplitude by measuring maximum efficacy by whole-cell patch clamp assay; assay type: cell-based; details: filed as activator, time 24-48 hrs
[11] = test system: Mus musculus; test: Anticonvulsant activity in MES-induced seizure Kunming mouse model assessed as protection against tonic hind limb extension at 30 mg/kg, ip measured after 30 min; assay type: functional, organism-based

SMILES | ED50 [1] [mg/kg] | Activity [2] | TD50 at 0.5 h [3] [mg/kg] | Ct [4] [ng/mL] | Activity [5] [%] | EC50 [6] [µM] | selectivity ratio [7] | IC50 [8] [µM] | Cp [9] [ng/mL] | fold change (FC) [10] | Activity [11]
O=C1NC(=O)C(c2ccccc2)(c2ccccc2)N1 [PHENYTOIN] | > 300 | – | – | – | – | – | – | – | – | – | –
CCCCN1C(=O)CC(c2ccccc2)n2nc(-c3ccc(OC)cc3)nc21 (configuration not stated) | 17.1 | Dose-dependent-effect | > 267 | 696.98 | 100 | 1.24 | > 15.6 | 35 | 1202.06 | 2.41 | –
NC(=O)N1c2ccccc2C=Cc2ccccc21 [CARBAMAZEPINE] | > 100 | – | – | – | – | – | – | – | – | – | –
CCCCN1C(=O)CC(c2ccccc2)n2nc(-c3ccc(C)cc3)nc21 (configuration not stated) | 18.3 | Dose-dependent-effect | > 267 | 661.3 | 100 | 0.82 | > 14.6 | – | 1186.41 | 2.21 | –
O=C1CC(c2ccccc2F)n2nc(-c3ccccc3F)nc2N1 (configuration not stated) | 23.7 | – | > 267 | 458.72 | 100 | – | > 11.3 | 19.9 | 866.91 | 1.14 | Active; Moderate Protection
O=C1CC(c2ccccc2Cl)n2nc(-c3ccccc3F)nc2N1 (configuration not stated) | – | – | – | – | – | – | – | – | – | – | Active; Moderate Protection
CCCC(CCC)C(=O)O [VALPROIC ACID] | 149 | – | – | – | – | – | – | – | – | – | –
